# Measurements published in patent US7056938B1, “Method for scavenging radicals with urocanic acid, derivatives and analogues” (Academisch Ziekenhuis Bij De Univ., priority 1999, dated 2006).
# Read-outs that look alike come from different tables or passages of the source. Marks after values point to notes of the source that are not given here.
# What was measured:
# [1] = deoxyribose (dR) degradation test, hydroxyl radical scavenging; assay type: biochemical; conditions: for SECOND ORDER RATE CONSTANT for reaction with hydroxyl radicals: mean of n slopes, sodium phosphate buffer pH 7.2
# Protocol: Trans-UCA, cis-UCA, related imidazoles and non-imidazole compounds were tested with regard to their ability to compete with deoxyribose to scavenge hydroxyl radicals. On exposure to hydroxyl radicals deoxyribose is degraded into malondialdehyde, which reacts with thiobarbituric acid to form a pink chromogen. Powerful hydroxyl-radical scavengers will compete with deoxyribose, resulting in a reduced amount of malondialdehyde. Ten compounds, UCA, UCA analogues, alanine and uric acid (FIG. 1) were tested on their ability to scavenge hydroxyl radicals.
# Method: the deoxyribose (dR) degradation test. The test was analogous to an earlier described method. Briefly, the reactions were performed in 5 mL screw cap glass tubes in a final volume of 1.0 mL sodium phosphate buffer (50 mM; pH 7.2), containing 3.0 mM 2 deoxy-D-ribose, 0.5 mM hydrogen peroxide and one of the test compounds at graded concentrations. The reaction was started by the addition of premixed disodium EDTA and ferrous iron solution (final concentrations 0.5 mM and 0.2 mM, respectively). The mixture was left for 15 minutes at room temperature. After addition of 1.0 mL 1% thiobarbituric acid in 50 mM NaOH and 0.75 mL 2.8% trichloroacetic acid, the tubes were heated for 20 minutes in a boiling water bath. The pink color was read at 532 nm and reciprocal absorption values were plotted against the concentration of the test compound after subtraction of appropriate blanks. A series of six duplicate determinations from test compound dilutions was employed to construct a graph slope for the calculation of a rate constant value. The mean, SD, number of rate constants and the percentage of inhibition of deoxyribose degradation, calculated for each test compound, are listed. Results. All second-order rate constants for reaction with hydroxyl radicals and, in addition, the percentage inhibition of deoxyribose degradation with equimolar concentrations (3 mM) of scavenger are summarized in Table 1. Trans-UCA and cis-UCA are substantially more powerful in scavenging hydroxyl radicals (8.0 and 7.1×10^3 M^−1,s^−1, respectively), than the other 4-(5-)-substituted imidazoles, including L-histidine (2.6×10^2 M^−1,s^−1). L-histidine, the precursor of UCA, was included as a known moderate scavenger with structural similarities to UCA. L-alanine was used as a known poor scavenger. Trans-FAA was tested as a non-imidazole acrylic acid derivative, having a furan ring instead.
# FIG. 2. A determination of the second order rate constants of trans-UCA and cis-UCA with hydroxyl radicals. The rate constant was derived from the slope of the line (k=slope×kdR×[dR]×A0), where A0 is the absorbance, measured in the absence of hydroxyl radical scavenger. KdR was taken as 3.1×10^9 M^−1,s^−1, derived from pulse radiolysis studies, and [dR]=3 mM. […] The other scavengers were studied similarly.
# rat = conditions: oral rat; cited from earlier work
# [2] = Fenton oxidation of UCA (Fe2+ / hydrogen peroxide, HPLC); assay type: physicochemical
# Protocol: Trans-UCA and cis-UCA were separated from each other and from several UCA oxidation products on a 4.6×250 mm Alltima C18 and Luna C18 reversed-phase column (Alitech, Deerfield, Ill. and Phenomenex, Torrence, Calif., resp.) with a flow of 0.8 mL/min, delivered by P-3500 HPLC-pumps (Pharmacia, Uppsala, Sweden). Samples of 20 to 200 μL were injected by a Promis II autosampler (Spark Holland, Emmen, The Netherlands) and chromatographic data were recorded on an SP 4270 integrator (Spectra Physics, San Jose, Calif.). Peak area data from samples were only processed under identical HPLC circumstances. A UV-detector (Applied Biosystems, model 759A, Foster City, Calif.) was set for 226 nm detection. Isocratic elution was performed with 10 mM ammonium formate buffer, containing 0.2–0.8 mM tetrabutylammonium(TBA)formate and 1% acetonitrile (pH 7.2). Collected fractions were acidified with formic acid up to a final concentration of 100 mM and passed through C18 could phase extraction columns (J T Baker, Deventer, The Netherlands) in order to remove TBA.
# […] In addition, two hydroxyl-radical-generating systems with copper ions (Cu^2+) were used, consisting of 50 μM Cu^2+ with either 500 μM hydrogen peroxide or 5 mM ascorbic acid.
# In the next series of experiments we studied the Fenton oxidation of UCA, representing another natural oxidation process. Trans-UCA and cis-UCA isomers were Fenton oxidized by ferorus ions (Fe^2+) and hydrogen peroxide at physiological concentrations. The initial hydrogen peroxide concentration was 500 μM and the ferrous ion concentration was varied from 0 to 500 μM. In all Fenton oxidation reactions the degree of UCA-isomer breakdown was calculated from their reduced peak areas. The oxidation reaction must have been completed within 2 minutes for all reaction conditions, because no further breakdown was observed after prolonged incubation.
# When the Fenton reaction was performed in water instead of phosphate buffer, the oxidative breakdown of trans-UCA was enhanced irrespective of the UCA concentration. The turbidity seen in reactions performed in phoshate buffer (10 mM) with high Fe^2+ concentration (>100 μM) was probably due to the formation of insoluble, iron phosphate, thereby reducing the free availability of Fe^2+. Table 3 summarizes the difference between water and phosphate medium for trans-UCA at an initial concentration of 40 μM with respect to its breakdown and the formation of Fenton-oxidation products. Similarly to the photo-oxidation experiments, the peak areas of the 8 major oxidation products were summed. […] A close resemblance was observed between the chromatographic patterns of UCA Fenton oxidation products (not shown) and those of UCA photo-oxidation products. Three of them has been identified (vide infra).
# In another series of experiments we studied the Fenton oxidation of UCA, representing another natural oxidation process. The initial hydrogen peroxide concentration was 500 μM in all experiments and the ferrous ion concentration was varied from 0 to 400 μM. Four sets of conditions were compared: […] in phosphate buffer pH 7.2, 2. Fe^2+ in phosphate buffer plus EDTA, 3. Fe^2− without buffer with a initial pH of 5.5–5.3 and 4. Cu^2+ in phosphate buffer plus ascorbate. The degree of breakdown was similar for both UCA isomers.
# [3] = tested on: ear swelling response from BALB/c mice; assay: inhibition of contact hypersensitivity, ear swelling response; conditions: for inhibition of CHS (in words): as ammonium salts
# [4] = [SCAVENGER] = [DEOXYRIBOSE] = 3 Mm
Structure (SMILES),"INHIBITION of DEOXYRIBOSE DEGRADATION [1, 4] [%]",SECOND ORDER RATE CONSTANT for reaction with hydroxyl radicals [1],hydroxyl radical scavenging ability (in words) [1],also measured
"C[C@H](N)C(=O)O [L-Alanine, L-alanine]",2,1e+08 M⁻¹ s⁻¹,,
"Cc1ncc[nH]1 [2-Methylimidazole, 2-methylimidazole]",,1.17e+10 M⁻¹ s⁻¹,stronger hydroxyl radical scavengers,"INHIBITION of DEOXYRIBOSE DEGRADATION ([1]; 15 min, 3 mM, pH 7.2): 76%; LD50 (rat): 1500 mg/kg"
"N[C@@H](Cc1c[nH]cn1)C(=O)O [L-Histidine, L-histidine]",34,2.6^(c) × 10^9 M^−1 · s^−1,,rate constant for scavenging hydroxyl radicals [1]: 2.6e+09 M⁻¹ s⁻¹
O=C(O)/C=C\c1c[nH]cn1 [cis-Urocanic acid],64,7.1e+09 M⁻¹ s⁻¹,,"second order rate constant in the particular set of FIG. 2 ([1]; single set of FIG. 2, kdR 3.1×10^9, [dR]=3 mM): 7.33 ×10^9 M^−1,s^−1; broken down by the unbuffered Fenton oxidation system ([2]; initial UCA concentration 250 μM, unbuffered): 75%; ear swelling ([3]; 1 g/l, maximum normalized to 100%): 31%"
c1c[nH]cn1 [imidazole],,,stronger scavengers than the UCA isomers,
"O=CC(=O)O [Glyoxylic acid, glyoxylic acid]",,,,inhibition of CHS (in words) [3]: did not exhibit significant inhibition
"O=C(O)CCc1c[nH]cn1 [Dihydrourocanic acid, 3-(imidazol-4-yl)-propionic acid]",,3.7e+09 M⁻¹ s⁻¹,moderate scavenging ability,"INHIBITION of DEOXYRIBOSE DEGRADATION ([1]; 15 min, 3 mM, pH 7.2): 34%"
"O=C(O)Cc1c[nH]cn1 [Imidazole-4acetic acid, imidazole-4-acetic acid]",30,2.2e+09 M⁻¹ s⁻¹,moderate scavenging ability,
O=C(O)C(=O)O [oxalic acid],,,,inhibition of CHS (in words) [3]: did not exhibit significant inhibition
"O=Cc1c[nH]cn1 [ImCHO, imidazole-4-carboxaldehyde]",,,,yield of ImCOOH from ImCHO as starting material ([2]; after Fenton- or photooxidation): ~100%
"O=C(O)/C=C/c1ccco1 [trans-2-Furylacylic acid, trans-2-furylacrylic acid]",,<1e+08 M⁻¹ s⁻¹,very poor scavenging ability,INHIBITION of DEOXYRIBOSE DEGRADATION [1]: <2%
"O=c1[nH]c(=O)c2[nH]c(=O)[nH]c2[nH]1 [Uric acid, uric acid]",,2.78e+10 M⁻¹ s⁻¹,,"INHIBITION of DEOXYRIBOSE DEGRADATION ([1]; 15 min, 3 mM, pH 7.2): 91%"
